Patent publication US9403806B1, “Cognition enhancing compounds and compositions, methods of making, and methods of treating” (NeuroSolis, Inc., priority 2010, dated 2016)
Read-outs that look alike come from different tables or passages of the source.

What was measured:
[1] = tested on: CD-I mice; assay: Apomorphine induced climbing model of psychosis; type: in vivo; conditions: APO 2 mg/kg alone
Protocol: As described in Costall et. al. European Journal of Pharmacology 1978, 50, 39. individual CD-I mice, 1-2 months old, were placed in a cylindrical wire mesh cage (13.2 cm high×13.2 cm diameter) constructed of steel wire 1 mm thick spaced at 1.2 cm^2. Cylinders were placed in a standard OptiMICE mouse cage (29×32×9×29 cm and 14 cm high) with adequate wood chip bedding provided. Observations of climbing (defined as 3 or more paws of the ground) were carried out every 5 minutes at a duration of 1 minute for […]. Animals were injected subcutaneously under isoflurane anesthesia with test compounds, reference compounds, which included clozapine, haloperidol, olanzapine and xanomeline, or PBS as a control. This was followed 5 minutes later by 2 mg/kg apomorphine hydrochloride. All drugs were dissolved in PBS or a mixture of (by volume) 96% PBS and 4% hydroxypropyl-beta-cyclodextrin, and dosed at a rate of 5 ml per kilogram of body weight. Following injections, animals were replaced in the mesh cages and observed for climbing (defined as 3 or more paws off the ground) every 5 minutes for 1 minute for 60 minutes after dosing.

[2] = tested on: salivary gland inositol phosphate; assay: In vivo tissue inositol phosphate signaling pathway activation, salivary gland; set-up: species or system Long Evans Hooded rats; conditions: rat; for block of increase in salivary gland inositol phosphate caused by Compound 3: Compound 3 1 mg/kg, tertiary amine antagonist 0.1 mg/kg (FIGS. 8C, 8D); for inhibition of salivary gland inositol phosphate response to MCD-386: MCD-386 50 mg/kg, antagonist 0.3 mg/kg (FIG. 7)
Protocol: Experimental compounds or drug substances were administered using standard techniques to Long Evans Hooded rats weighing 225 to 350 grams, and which had been pretreated with a subcutaneous injection of lithium chloride at a suitable dose between 3 and 10 mmoles per kg. At suitable times the animals were briefly anesthetized using 5% isoflurane and euthanized by decapitation. The brains and submaxillary salivary glands were rapidly dissected out, and the hippocampuses were dissected from the brains. The dissected tissues were homogenized in a suitable volume of ice-cold phosphate-buffered saline containing 10 mM lithium chloride, pH7.4, using a tissue homogenizer, and used immediately or frozen in aliquots at −80 deg C. for future use. The concentration of inositol-1-phosphate was determined in the homogenates using the IPOne TR-FRET assay (CisBio cat no 621PAPEB), following the manufacturer's instruction

[3] = tested on: anesthetized rats; assay: Salivation after iontophoretic transdermal co-delivery of agonist and antagonist; type: in vivo, Long Evans Hooded rats; conditions: anesthetized rat, one patch with 1 mg Compound 3 plus 0.01 mg antagonist
Protocol: Experimental compounds and drug substances were delivered transdermally in rats using iontophoresis as follows. The fur was shaved from the backs of Long Evans Hooded rats weighing 225 to 325 grams, using electric clippers. Experimental compounds and drug substances were formulated at suitable concentrations an aqueous mixture of the following composition:
The polyvinyl alcohol/water was heated to 95 deg C. until it became clear, then the other constituents were added and mixed well. The mixture was introduced into suitable molds containing a disc-shaped cavity 2.2 cm diameter and 2.2 mm deep. Molds may be fabricated using two glass sheets separated by a silicone rubber sheet with suitable sized cavities and filling ports cut-outs. The molds were subject to 3 freeze-thaw cycles at −80 deg C. and 20 deg C. until a firm cryogel was obtained. The gels were separated from the molds and trimmed into a circular shape. The gel was placed in a silicone rubber casing with one face in contact with a circular silver foil anodic electrode (22 mm dia/250 microns thick), and the assembly was placed on the shaved skin of the rat such that the other face was in contact with the skin on one side of the back of the rat. The rubber casing formed a seal over and around the gel/electrode assembly. […] This was placed on the other side of the shaved back of the rat, the edges of the gel discs being about 20 mm apart at their nearest point. A DC voltage was applied across the two patches from a constant-current DC power supply and the voltage adjusted to obtain the desired current, such that the skin of the animal completed the electrical circuit.
The devices were placed on shaved backs of anesthetized rats and salivation was measured.
The animals were placed slightly head-down on an inclined, heated ramp. Rectal temperature was monitored using a thermocouple and the temperature of the heating pad was adjusted manually to maintain normal body temperature. Saliva was collected from the mouth by absorption onto pre-weighed slips of filter paper. The filter paper was changed periodically and the amount of saliva was measured by weighing the filter paper slips

[4] = tested on: muscarinic M3 receptors in the salivary glands; assay: In vivo inositol phosphate increase in salivary glands, Example 44; set-up: species or system Long Evans Hooded rats; conditions: rat, 3 mg/kg sc
Protocol: (§1) In lithium chloride-treated laboratory rodents, engagement of muscarinic M1 receptors in the hippocampus may usefully be evaluated in vivo by measuring the increase in the tissue of inositol phosphate (Bymaster F P et al Brain Res 795 (1998) 179-190). This may also be extended to measure engagement of muscaric M3 receptors in the salivary glands.
(§2) Experimental compounds were administered subcutaneously at 3 mg/kg using standard techniques to Long Evans Hooded rats weighing 225 to 350 g, and which had been pretreated with a subcutaneous injection of lithium chloride at a suitable dose between 3 and 5 mmole/kg. At suitable times the animals were briefly anesthetized using 5% isoflurane and euthanized by decapitation. The brains and submaxillary salivary glands were rapidly dissected out, and the hippocampuses were dissected from the brains. The dissected tissues were homogenized in a suitable volume of ice-cold phosphate-buffered saline containing 10 mM lithium chloride (pH=7.4) using a tissue homogenizer, and used immediately or frozen in aliquots at −80° C. for future use. The concentration of inositol-1-phosphate was determined in the homogenates using the […] IP-One Terbium TR-FRET assay kit (Cisbio Bioassays, cat. #62IPAPEJ) according to the manufacturer's instructions.

[5] = Blood and brain concentrations (rats), tail vein injection; type: in vivo, Long-Evans Hooded rats; conditions: rat; for Kp at 1 h: brain and plasma, intravenous, Table 114, read-out: Brain/Plasma Ratio; for concentration at 1 h: 3 mg/kg tail vein injection
Protocol: Long-Evans Hooded rats (Charles River: male, 230-300 g) were dosed with solutions of test compounds in PBS by tail vein injection. The dose for all compounds was 3 mg/kg. At one hour, the animals were anesthetized with isoflurane, and then euthanized by decapitation. Trunk blood was collected into a 1.5 mL microcentrifuge tube containing 15 U Heparin, and the plasma recovered after centrifugation. Brains were dissected, weighed, immediately chilled to 4° C., and homogenized using a PowerGen 125 homogenizer in five volumes of ice-cold 2% formic acid. Proteins were precipitated from plasma and brain homogenate with nine and five volumes respectively of ice-cold 2% formic acid and clarified by centrifugation. The supernatant was ultra-filtered by centrifugation through a 3K MWCO spin column (Pall Life Sciences), following the manufacturer's instructions. The concentration of compound in the ultra-filtrate was subjected to reverse-phase liquid chromatography using a 150×2.1 mm Agent C8 reverse-phase column on a Shimadzu Prominence LC, eluting the compounds with a gradient of 2% to 50% of acetonitrile+0.1% formic acid for all compounds. The concentration of the compound in the column effluent was measured using an Applied Biosystems API-3200 triple quadrupole mass spectrometer equipped with an electrospray sample injection system. The counts of the characteristic parent and product ions of each test compound were converted to concentration units by comparison with a standard curve.

[6] = as above; type: in vivo, Long-Evans Hooded rats; conditions: male, Long-Evans Hooded, rat, plasma, iv, 3 mg/kg, 3 mg/kg tail vein injection, read-out: Plasma Terminal Half-life (converted)
[7] = target: T1, human muscarinic M3 receptors (Homo sapiens, UniProt P20309); type: cell-based; conditions: for huM3/A9L Smax: percentage of maximal stimulation by carbachol; for huM3/A9L Potency relative to carbachol: relative to the potency of carbachol at its EC50
T1 construct: host or cells: A9L cells

[8] = target: T2, human muscarinic M1 receptors (Homo sapiens, UniProt P11229); type: cell-based; conditions: for huM1/A9L Smax: percentage of maximal stimulation by carbachol; for huM1/A9L Potency relative to carbachol: relative to the potency of carbachol at its EC50
T2 construct: host or cells: A9L cells
T2 sequence (P11229 1-460): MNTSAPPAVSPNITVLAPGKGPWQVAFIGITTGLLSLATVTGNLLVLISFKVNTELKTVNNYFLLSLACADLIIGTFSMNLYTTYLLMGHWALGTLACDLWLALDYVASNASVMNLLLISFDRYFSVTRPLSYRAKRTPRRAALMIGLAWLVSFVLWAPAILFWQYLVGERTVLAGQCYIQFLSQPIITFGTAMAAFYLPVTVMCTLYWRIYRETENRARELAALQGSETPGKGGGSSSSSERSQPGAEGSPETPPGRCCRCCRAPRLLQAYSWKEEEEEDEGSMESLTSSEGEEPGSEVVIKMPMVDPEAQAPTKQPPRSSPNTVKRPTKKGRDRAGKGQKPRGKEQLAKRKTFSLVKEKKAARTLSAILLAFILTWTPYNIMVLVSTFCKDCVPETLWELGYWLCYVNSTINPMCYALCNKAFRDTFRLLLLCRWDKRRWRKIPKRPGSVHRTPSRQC

[9] = tested on: muscarinic M1 receptors in the hippocampus; assay: In vivo inositol phosphate increase in hippocampus, Example 44; set-up: species or system Long Evans Hooded rats; conditions: rat, 3 mg/kg sc
Protocol: as §1, §2

[10] = in vitro; type: in vitro ADME; conditions: PAMPA, pH 7.4, 400 μM, pH 7.4, 24 hours, room temperature; read-out: PAMPA Permeability Coefficient (×10^6)
Protocol: PAMPA is a useful in vitro model for predicting the passive diffusion of drugs across the blood-brain barrier (Li, D et al Eur jour of Med Chem 38 (2003) 223-232).
Compounds were diluted in a 100 mM phosphate buffer (pH 7.4) to a concentration of 400 μM and the stock solutions were placed into a 96-well filter plate (Millipore, #MAIPN4510) pre-wetted with 20 mg/mL porcine brain polar lipid extract in 100% dodecane (Avanti, #131022) and placed into a 96-well acceptor plate (Millipore, #MSSACCEPTOR) whose wells were filled with the same phosphate buffer as in the filter plate. This assembly was incubated at room temperature for 24 hours. The experiment was halted by separating the filter plate from the acceptor plate. Aliquots were removed from the filter plate wells, acceptor plate wells, and stock solutions, and 1% trifluoroacetic acid was added to each. All solutions were measured by LC/UV, and passive diffusion rates were calculated using the peak area values (Avdeef, Alex. 2003. Page 147 in Absorption and Drug Development. Hoboken, N.J.: John Wiley & Sons).

[11] = tested on: pooled male human liver microsomes; assay: Metabolism in human liver microsomes, Example 45; type: in vitro ADME
Protocol: Aliquots were removed every 2 hours, and 1% formic acid was added to halt the reaction. Samples were centrifuged, filtered through 0.2 micron spinfilter, and the amount of each compound in the supernatants was quantitated using LC/MS/MS as follows. The ultra-filtrates were subjected to reverse-phase liquid chromatography using a 150×2.1 mm Agilent C8-reverse phase column on a Shimadzu Prominence LC, eluting the compound with a gradient of 2%-50% acetonitrile+0.1% formic acid over 5 minutes. The concentration of the compound in the column effluent was measured using an Applied Biosystems API-3200 triple quadrupole mass spectrometer equipped with a Turbo V source (electrospray sample injection) system. The counts of the characteristic parent ions of the protonated compound and product ions were converted to concentration by comparison with a standard calibration curve. The parent/daughter ion pairs that were monitored for each compound were: 166.0/82.0 (105), 166.0/82.0 (106b), 166.0/82.0 (106a), 169.0/83.0 (136), 168.2/83.0 (121), 168.1/83.0 (122a), 168.1/83.0 (122b), 170.2/83.0 (134), 168.2/84.1 (135), 168.1/84.1 (137) and 169.2/82.1 (138).

[12] = male, Long-Evans Hooded, 3 mg/kg
[13] = male, Long-Evans Hooded, in vivo, 3 mg/kg, read-out: Plasma Concentration at 1 hr

T1 sequence (P20309 whole entry): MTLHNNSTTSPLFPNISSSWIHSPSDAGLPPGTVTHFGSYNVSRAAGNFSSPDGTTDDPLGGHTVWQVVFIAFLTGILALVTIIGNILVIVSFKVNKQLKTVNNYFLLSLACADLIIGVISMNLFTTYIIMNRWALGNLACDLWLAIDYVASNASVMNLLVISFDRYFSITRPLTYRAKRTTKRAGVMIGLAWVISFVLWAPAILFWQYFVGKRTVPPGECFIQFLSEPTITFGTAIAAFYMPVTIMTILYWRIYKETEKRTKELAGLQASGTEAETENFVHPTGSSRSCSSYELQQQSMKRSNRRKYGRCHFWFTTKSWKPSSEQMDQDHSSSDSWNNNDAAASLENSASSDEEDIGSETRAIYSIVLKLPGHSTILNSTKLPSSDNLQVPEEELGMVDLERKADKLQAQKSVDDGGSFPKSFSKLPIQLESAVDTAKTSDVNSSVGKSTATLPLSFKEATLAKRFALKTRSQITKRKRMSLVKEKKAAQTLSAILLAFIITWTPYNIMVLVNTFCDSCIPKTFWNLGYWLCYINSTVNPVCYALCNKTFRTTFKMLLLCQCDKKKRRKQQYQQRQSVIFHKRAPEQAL

| Structure (SMILES) | block of increase in salivary gland inositol phosphate caused by Compound 3 [2] | inhibition of salivary gland inositol phosphate response to MCD-386 [2] | reduction of salivation caused by transdermal iontophoretic delivery of Compound 3 [3] | Kp at 1 h [5, 12] | concentration at 1 h [5, 13] [µM] | half-life [6] [h] | huM3/A9L Smax [7] [%] | huM3/A9L Potency relative to carbachol [7] | huM1/A9L Smax [8] [%] | huM1/A9L Potency relative to carbachol [8] | Papp at 24 h, 400 µM [10] [×10⁻⁶ cm/s] | Loss at 6 hrs (%) [11] [%] | also measured |
| --- | --- | --- | --- | --- | --- | --- | --- | --- | --- | --- | --- | --- | --- |
| CN1CCc2cccc3c2[C@H]1Cc1ccc(O)c(O)c1-3 [APO, reference compound] | – | – | – | – | – | – | – | – | – | – | – | – | Climbing Mean [1]: 51.7 s |
| CCN(CC)CC#CCOC(=O)C(O)(c1ccccc1)C1CCCCC1 (stereo not shown) [oxybutinin] | less effective | less effective | reduced salivation, but were less effective | – | – | – | – | – | – | – | – | – | – |
| NC(=O)C(c1ccccc1)(c1ccccc1)[C@@H]1CCN(CCc2ccc3c(c2)CCO3)C1 [darifenacin] | less effective | less effective | reduced salivation, but were less effective | – | – | – | – | – | – | – | – | – | – |
| [2H]C([2H])([2H])c1noc(C23CNC([2H])([2H])C2C3)n1 (stereo not shown) [Compound 136, 5-(4,4,5-d3-3-azabicyclo[3.1.0]hexan-1-yl)-3-methyl-1,2,4-oxadiazole] | – | – | – | 0.56 | 13.6 | 1.15 | 36 | 0.45 | 41 | 0.89 | 3.71 | 11 | Increase in Inositol Phosphate in Salivary Gland/Control ([4]; 5 mmole/kg LiCl, 3 mg/kg): 231%; concentration at 1 h ([5]; read-out: Brain Concentration at 1 hr): 7.4 µM; Increase in Inositol Phosphate in Hippocampus/Control ([9]; 5 mmole/kg LiCl, 3 mg/kg): 694% |
| [2H]C1([2H])NC[C@@]2(c3nc(C)no3)C[C@@H]12 [Compound 122a, 5-((1R,5R)-4,4-d2-3-azabicyclo[3.1.0]hexan-1-yl)-3-methyl-1,2,4-oxadiazole] | – | – | – | 0.59 | 12.2 | 0.97 | 44 | 0.38 | 77 | 1.09 | 3.93 | 20 | Increase in Inositol Phosphate in Salivary Gland/Control ([4]; 3 mmole/kg LiCl): 182%; concentration at 1 h ([5]; male, Long-Evans Hooded, in vivo, 3 mg/kg, read-out: Brain Concentration at 1 hr): 5 µM; Increase in Inositol Phosphate in Hippocampus/Control ([9]; 3 mmole/kg LiCl): 487% |
